TGI data for eleven molecules are collected here from PubChem BioAssay (NCI).

Common to all, as to test: growth of human tumour cells (NCI), 48 h
Assay [1] has as its system SF-539 CNS.
Assay [2] relates to RPMI-8226 leukemia.
Assay [3] deals with SW-620 colon.
Assay [4] has as its system OVCAR-4 ovarian.
Assay [5] deals with A498 renal.
Assay [6] has as its system HS 578T breast.
Assay [7] relates to CAKI-1 renal.
Assay [8] concerns SK-MEL-2 melanoma.
For assay [9], the system named is HL-60(TB) leukemia.
For assay [10], the system named is LOX IMVI melanoma.
Assay [11] has as its system DU-145 prostate.

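Cells were grown in 96-well plates and exposed to each compound for 48 hours at five concentrations; endpoints were interpolated linearly between bracketing concentrations, or set to the highest concentration if not reached. TGI: total growth inhibition.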 Where a SMILES comes first, the peptide text is derived from it. [ ]: non-standard residue; d: D form. The star is where a group is joined. Tyr(3-Br) = N[C@@H](Cc1ccc(O)c(Br)c1)C(=O)O; Boc = CC(C)(C)OC(=O)*

`COC(=O)[C@H](Cc1ccc(O)c(Br)c1)NC(=O)[C@H](Cc1ccc(O)cc1)NC(=O)OC(C)(C)C` (Boc-Tyr-[Tyr(3-Br)]-OMe): the TGI was 94.9 µM in assay [1]; 91 µM in [2]; more than 100 µM in assay [3]; more than 100 µM in assay [4]; more than 100 µM in [5]; more than 100 µM in assay [6]. Besides, the TGI was more than 100 µM in assay [7]; more than 100 µM in assay [8]; more than 100 µM in [9]; 42.6 µM in [10]; more than 100 µM in assay [11].

For `COc1cc(C2SC(N)=Nc3c2c(C)nn3C(=O)c2ccccc2O)ccc1O` (stereo unspecified), the TGI in assay [1] was more than 2.31 µM; in assay [2], more than 7.78 µM; in assay [3] it was more than 10 µM; in assay [4], more than 6.37 µM; in assay [5], more than 10 µM; in assay [6], more than 10 µM. Moreover, the TGI is more than 10 µM in assay [7]; more than 10 µM in assay [8]; more than 4.56 µM in assay [9]; more than 10 µM in assay [10]; more than 10 µM in [11].

Consider `Nc1ncc(Cl)c(NCC2(CO)CC(CCc3ccccc3)C2)n1` (stereo unspecified), for which the TGI in assay [1], in assay [2], in [3], in [4], in assay [5] and in [6] was more than 100 µM each time. The TGI in assay [7], in assay [8], in assay [9], in [10] and in assay [11] was more than 100 µM throughout.

`Cc1nc2c(nc1C)-c1c(c3c(n1C)C(=O)CCC3)C(=O)C2=O`: the TGI in assay [1] came to 2.51 µM; in assay [2], 0.636 µM; in [3], 0.534 µM; in assay [4] it was 0.279 µM; in assay [5] it was 2.59 µM; in assay [6], 9.62 µM. The TGI in assay [7] amounted to 0.286 µM; in assay [8], 1.29 µM; in [9], 0.508 µM; in assay [10], 0.397 µM; in [11], 2.44 µM.

With `O=C(N/N=C/c1ccc([N+](=O)[O-])o1)c1ccc(C(=O)N/N=C/c2ccc([N+](=O)[O-])o2)cc1`, the TGI in assay [1] is 38.3 µM; in assay [2], 26.1 µM; in [3], more than 100 µM; in assay [4], more than 100 µM; in assay [5] it was more than 100 µM; in assay [6] it was more than 100 µM. Further, the TGI in [7] was more than 100 µM; in [8] it was more than 100 µM; in assay [9], 44.4 µM; in assay [10], 94.9 µM; in [11] it was more than 100 µM.

For the molecule `c1ccc(P(CCP(c2ccccn2)c2ccccn2)c2ccccc2)cc1`, the TGI in assay [1] is more than 100 µM; in [2], 40.6 µM; in assay [3] it was more than 100 µM; in [4], more than 100 µM; in [5], more than 100 µM; in assay [6], more than 100 µM. Also, the TGI in [7] was more than 100 µM; in assay [8], 66.3 µM; in [9] it was 78.2 µM; in assay [10], more than 100 µM; in assay [11], more than 100 µM.

Consider `CCOC(=O)C(C(=O)c1ccccc1C(=O)OC)=P(c1ccccc1)(c1ccccc1)c1ccccc1`, for which the TGI in assay [1], in assay [2], in assay [3], in [4], in assay [5] and in [6] was more than 10 µM throughout. Further, the TGI in [7], in assay [8], in assay [9], in assay [10] and in [11] was more than 10 µM throughout.

For `CCCCOC(=O)NC(Nc1cccc(C(F)(F)F)c1)(C(F)(F)F)C(F)(F)F`, the TGI is more than 100 µM in assay [1]; 61.5 µM in [2]; more than 100 µM in [3]; more than 100 µM in [4]; more than 100 µM in assay [5]; more than 100 µM in assay [6]. Moreover, the TGI in [7] was more than 100 µM; in [8], 99.1 µM; in assay [9], 56.2 µM; in assay [10], more than 100 µM; in assay [11], more than 100 µM.

As for `CC1=CCC2C3(C)CCC2(C(C)C)C1C3` (stereo unspecified) (tested in a mixture with another compound), the TGI was 87.4 µM in [1]; 56.7 µM in assay [2]; 53.7 µM in assay [3]; more than 100 µM in assay [4]; 89.4 µM in assay [5]; 38.2 µM in assay [6]. In addition, the TGI was 40.7 µM in assay [7]; 32.2 µM in assay [8]; 57.3 µM in assay [9]; 87.8 µM in assay [10]; 68 µM in assay [11].

On to `CN(C)Cc1cc(C(C)(C)C)ccc1-c1ccc(C(C)(C)C)cc1CN(C)C`, for which the TGI in assay [1], in [2], in [3], in assay [4], in assay [5] and in [6] was more than 100 µM in each case. Further, the TGI in assay [7], in assay [8], in assay [9], in assay [10] and in [11] was more than 100 µM each time.

For the molecule `O=C(/C=C1\C[C@H]2C=Nc3ccccc3C(=O)N2C1)NCCCCNC(=O)/C=C1\C[C@H]2C=Nc3ccccc3C(=O)N2C1`, the TGI in assay [1] was 30.5 µM; in assay [2], 18.6 µM; in assay [3] it was 7.58 µM; in assay [4], 26.1 µM; in [5], 32.9 µM; in [6] it was more than 88.7 µM. Besides, the TGI in assay [7] was found to be 6.4 µM; in assay [8] it was 29.2 µM; in assay [9], 12.6 µM; in assay [10], 6.35 µM; in [11] it was 29.7 µM.
